From US12215112B2, “CD151 inhibitors” (ESFAM BIOTECH PTY LTD, priority 2020, dated 2025)

Tested on: PC3 cells
Assay: xCELLigence RTCA real-time cell invasion assay (CIM plate, Matrigel) on PC3 prostate cancer cells
Type: cell-based
Conditions: Homo sapiens, PC-3, compound 25 uM to 1 uM, cell index monitored for 72 hours, four-parameter dose-response curve, read-out: IC50, Effect of compounds on the invention on prostate cancer cells
Experimental: The media antibiotics and serum were purchased from Invitrogen (Life Technologies). PC3 cells were purchased from ATCC (Granville, NSW, Australia). PC3 cells were expanded in cell culture T75 flasks with vented cap and then preserved in low passage number. The medium used for PC3 cells was RPMI (GlutaMAX) supplemented with 10% FCS and 1% penicillin/streptomycin (culture media). The cells were maintained at 37° C. in a humidified 95% (v/v) air/5% (v/v) CO2 environment and were grown up to 80% confluence.
XCELLigence® real-time cell analysis (RTCA) instrument (ACEA Biosciences), 16-well ACEA CIM-Plates, 16-well ACEA E-Plat and assembly tool were purchased from ELITechGroup empowering IVD (Braeside, Australia). The Matrigel was purchased from Corning (Australia).
To measure cell invasion under compound treatment the upper chamber of the CIM plate was coated with 5% Matrigel diluted in SF RPMI (20 μl) and incubated in a 37° C. tissue culture incubator for four hours. Using the assembly tool to support the chambers the lower chamber was filled with (160 μl) of culture media containing the compound in specific concertation from 25 uM to 1 uM and two controls (DMSO 0.1% and ESFAM 4C 10 uM) (see the schematic in FIG. 1). Once the upper chamber was placed on the top of the lower chamber it was loaded with (40 μl) serum-free (SF) RPMI containing the compound as previously stated. After one hour calibration in 37° C., plates were placed into the xCELLigence station, and the base-line electric impedance was measured to confirm that all wells and connections were working properly. In case of connection problem, the software automatically informs the researcher about the nature of the problem in the message section. Subsequently cells were trypsinized and upon harvesting and counting they were diluted in SF RPMI to desired density (3×10^4) and seeded (100 μl) in the wells. After 30 minutes of incubation in room-temperature to allow cell attachment the plates were loaded in the xCELLigence RTCA DP machine. The cell invasion was monitored in real-time for the duration of 72 hours. […]
The xCELLigence system automatically monitored the electrical impedance value of each well and expressed as a cell index (CI) value for the duration of 72 hours. The data for treatments was automatically grouped as the mean±standard deviation. The software version used in these experiments is 1.2.1. The electronic record of the experimental data is automatically saved in file that cannot be altered or changed by the researcher.
Statistical analysis was performed using Microsoft® Office EXCEL and GraphPad Prism 7. The IC50 was calculated from the four-parameter dose-response curve (log(inhibitor) vs. response-variable slopes). Where the row-data was inserted in GraphPad Prism 7 (Dose response x-log(dose)) and analysed for XY nonlinear regression (curve fit), dose response-inhibition, log(inhibitor) vs response variable slope (four parameters). For the IC90 calculation the log(IC50)=log(IC90)-(1/HillSlope)*log(9) equation was used in EXCEL based on the raw data extracted from xCELLigence system and the dose-response curve.

SMILES	IC50 [µM]
CC(C)(C)c1c(C(=O)Nc2cccc(O)c2)nn2c(-c3cn[nH]c3)cc(N3Cc4ccccc4C3)nc12 [Cmpd 85]	6.51
CN(Cc1ccccc1)c1cc(-c2cn[nH]c2)n2nc(C(=O)Nc3cccc(O)c3)cc2n1 [Compound 1, 5-(benzyl(methyl)amino)-N-(3-hydroxyphenyl)-7-(1H-pyrazol-4-yl)pyrazolo[1,5-a]pyrimidine-2-carboxamide]	6.9
CN(Cc1ccccc1)c1cc(-c2cn[nH]c2)n2nc(C(N)=O)cc2n1 [Compound 2, 5-(benzyl(methyl)amino)-7-(1H-pyrazol-4-yl)pyrazolo[1,5-a]pyrimidine-2-carboxamide]	16.9
CN(Cc1ccccc1)c1cc(-c2cn[nH]c2)n2nc(C(=O)NCc3ccccc3)cc2n1 [Compound 3, N-benzyl-5-(benzyl(methyl)amino)-7-(1H-pyrazol-4-yl)pyrazolo[1,5-a]pyrimidine-2-carboxamide]	11.9
CN(Cc1ccccc1)c1cc(-c2cn[nH]c2)n2nc(C(=O)Nc3ccc(O)cc3)cc2n1 [Compound 4, 5-(benzyl(methyl)amino)-N-(4-hydroxyphenyl)-7-(1H-pyrazol-4-yl)pyrazolo[1,5-a]pyrimidine-2-carboxamide]	0.81
COc1cccc(NC(=O)c2cc3nc(N(C)Cc4ccccc4)cc(-c4cn[nH]c4)n3n2)c1 [Compound 5, 5-(benzyl(methyl)amino)-N-(3-methoxyphenyl)-7-(1H-pyrazol-4-yl)pyrazolo[1,5-a]pyrimidine-2-carboxamide]	1.2
CN(Cc1ccccc1)c1cc(-c2cn[nH]c2)n2nc(C(=O)Nc3cccnc3)cc2n1 [Compound 6, 5-(benzyl(methyl)amino)-7-(1H-pyrazol-4-yl)-N-(pyridin-3-yl)pyrazolo[1,5-a]pyrimidine-2-carboxamide]	11.7
CN(Cc1ccccc1)c1cc(-c2cn[nH]c2)n2nc(C(=O)Nc3ccncc3)cc2n1 [Compound 7, 5-(benzyl(methyl)amino)-7-(1H-pyrazol-4-yl)-N-(pyridin-4-yl)pyrazolo[1,5-a]pyrimidine-2-carboxamide]	9.49
COc1cc(NC(=O)c2cc3nc(N(C)Cc4ccccc4)cc(-c4cn[nH]c4)n3n2)ccn1 [Compound 8, 5-(benzyl(methyl)amino)-N-(2-methoxypyridin-4-yl)-7-(1H-pyrazol-4-yl)pyrazolo[1,5-a]pyrimidine-2-carboxamide]	5.2
COc1cc(NC(=O)c2cc3nc(N(C)Cc4ccccc4)cc(-c4cn[nH]c4)n3n2)cc(OC)c1 [Compound 9, 5-(benzyl(methyl)amino)-N-(3,5-dimethoxyphenyl)-7-(1H-pyrazol-4-yl)pyrazolo[1,5-a]pyrimidine-2-carboxamide]	4.28
Cc1noc(C)c1NC(=O)c1cc2nc(N(C)Cc3ccccc3)cc(-c3cn[nH]c3)n2n1 [Compound 10, 5-(benzyl(methyl)amino)-N-(3,5-dimethylisoxazol-4-yl)-7-(1H-pyrazol-4-yl)pyrazolo[1,5-a]pyrimidine-2-carboxamide]	3.71
CN(Cc1ccccc1)c1cc(-c2cn[nH]c2)n2nc(C(=O)Nc3cn[nH]c3)cc2n1 [Compound 11, 5-(benzyl(methyl)amino)-N,7-di(1H-pyrazol-4-yl)pyrazolo[1,5-a]pyrimidine-2-carboxamide]	9.71
CN(Cc1ccccc1)c1cc(-c2cn[nH]c2)n2nc(C(=O)Nc3ccc(C#N)cc3)cc2n1 [Compound 12, 5-(benzyl(methyl)amino)-N-(4-cyanophenyl)-7-(1H-pyrazol-4-yl)pyrazolo[1,5-a]pyrimidine-2-carboxamide]	6.64
CN(Cc1ccccc1)c1cc(-c2cn[nH]c2)n2nc(C(=O)Nc3cccc(C#N)c3)cc2n1 [Compound 13, 5-(benzyl(methyl)amino)-N-(3-cyanophenyl)-7-(1H-pyrazol-4-yl)pyrazolo[1,5-a]pyrimidine-2-carboxamide]	4.71
COc1cccc(NC(=O)c2cc3nc(N(C)[C@@H](C)c4ccccc4)cc(-c4cn[nH]c4)n3n2)c1 [Compound 14, (S)—N-(3-methoxyphenyl)-5-(methyl(1-phenylethyl)amino)-7-(1H-pyrazol-4-yl)pyrazolo[1,5-a]pyrimidine-2-carboxamide]	1.96
C[C@@H](c1ccccc1)N(C)c1cc(-c2cn[nH]c2)n2nc(C(=O)Nc3cccc(O)c3)cc2n1 [Compound 15, (S)—N-(3-hydroxyphenyl)-5-(methyl(1-phenylethyl)amino)-7-(1H-pyrazol-4-yl)pyrazolo[1,5-a]pyrimidine-2-carboxamide]	1.02
C[C@@H](c1ccccc1)N(C)c1cc(-c2cn[nH]c2)n2nc(C(=O)Nc3ccccc3)cc2n1 [Compound 16, (S)-5-(methyl(1-phenylethyl)amino)-N-phenyl-7-(1H-pyrazol-4-yl)pyrazolo[1,5-a]pyrimidine-2-carboxamide]	150
C[C@@H](c1ccccc1)N(C)c1cc(-c2cn[nH]c2)n2nc(C(N)=O)cc2n1 [Compound 17, (S)-5-(methyl(1-phenylethyl)amino)-7-(1H-pyrazol-4-yl)pyrazolo[1,5-a]pyrimidine-2-carboxamide]	9.67
CC(C)Oc1cccc(NC(=O)c2cc3nc(N(C)Cc4ccccc4)cc(-c4cn[nH]c4)n3n2)c1 [Compound 18, 5-(benzyl(methyl)amino)-N-(3-isopropoxyphenyl)-7-(1H-pyrazol-4-yl)pyrazolo[1,5-a]pyrimidine-2-carboxamide]	7.95
CN(Cc1ccccc1)c1cc(-c2cn[nH]c2)n2nc(C(=O)Nc3cccc(OC(F)F)c3)cc2n1 [Compound 19, 5-(benzyl(methyl)amino)-N-(3-(difluoromethoxy)phenyl)-7-(1H-pyrazol-4-yl)pyrazolo[1,5-a]pyrimidine-2-carboxamide]	12.8
CN(C)c1cccc(NC(=O)c2cc3nc(N(C)Cc4ccccc4)cc(-c4cn[nH]c4)n3n2)c1 [Compound 20, 5-(benzyl(methyl)amino)-N-(3-(dimethylamino)phenyl)-7-(1H-pyrazol-4-yl)pyrazolo[1,5-a]pyrimidine-2-carboxamide]	3.56
CN1CCN(c2cccc(NC(=O)c3cc4nc(N(C)Cc5ccccc5)cc(-c5cn[nH]c5)n4n3)c2)CC1 [Compound 22, 5-(benzyl(methyl)amino)-N-(3-(4-methylpiperazin-1-yl)phenyl)-7-(1H-pyrazol-4-yl)pyrazolo[1,5-a]pyrimidine-2-carboxamide]	3.71
O=C(Nc1ccccc1)c1cc2nc(N3Cc4ccccc4C3)cc(-c3cn[nH]c3)n2n1 [Compound 23, 5-(isoindolin-2-yl)-N-phenyl-7-(1H-pyrazol-4-yl)pyrazolo[1,5-a]pyrimidine-2-carboxamide]	2.83
O=C(Nc1cccc(O)c1)c1cc2nc(N3Cc4ccccc4C3)cc(-c3cn[nH]c3)n2n1 [Compound 24, N-(3-hydroxyphenyl)-5-(isoindolin-2-yl)-7-(1H-pyrazol-4-yl)pyrazolo[1,5-a]pyrimidine-2-carboxamide]	1.42
COc1cccc(NC(=O)c2cc3nc(N4Cc5ccccc5C4)cc(-c4cn[nH]c4)n3n2)c1 [Compound 25, 5-(isoindolin-2-yl)-N-(3-methoxyphenyl)-7-(1H-pyrazol-4-yl)pyrazolo[1,5-a]pyrimidine-2-carboxamide]	2.43
O=C(Nc1cccc(OC(F)(F)F)c1)c1cc2nc(N3Cc4ccccc4C3)cc(-c3cn[nH]c3)n2n1 [Compound 26, 5-(isoindolin-2-yl)-7-(1H-pyrazol-4-yl)-N-(3-(trifluoromethoxy)phenyl)pyrazolo[1,5-a]pyrimidine-2-carboxamide]	9.74
